From patent US20050123553A1, “Amyloid beta-peptide and methods of use” (priority 2003, published 2005) come the findings set out here.

Ends that are not written are not given here.

Data set [1] has as its system Aβ16-30-specific T cells. Description: Proliferation of Aβ16-30-specific T cells with alanine/glycine-substituted peptides. It counts as cell-based, human. As to conditions: for T-cell proliferation, average cpm: 72 hr. An excerpt:
Because the T-cell epitopes were most frequently localized to Aβ16-30, we further mapped this epitope for each of its constituent amino acids by using alanine-substituted peptides in the T-cell proliferation assay (the naturally occurring alanines at positions 21 and 30 were changed to glycines). […] Substitution of lysine-16, alanine-21, serine-26 or aspargine-27 increased T-cell proliferation by more than 2-fold (Table 4).
In this experiment, T cells specific to Aβ16-30 were stimulated in the presence of alanine/glycine substituted peptides and autologous PBMCs. T-cell proliferation was measured by [^3H]-thymidine incorporation 72 hr after stimulation. Numbers represent average cpm of each antigen concentration tested (average cpm in the absence of antigen was 911).
(§1) T-cell lines were then supplemented with 10 μg/ml IL-2 after 48 hours and every 2 days thereafter until they were completely resting. T-cell proliferation was measured 72 hours after stimulation following a 12 hr incubation with [^3H]-thymidine. Supernatants were collected 48 hr after T-cell stimulation, and antigen-induced cytokine production was measured by sandwich ELISA. Recommended pairs of antibodies (coating and detecting) for IL-10 (R&D, Minneapolis, Minn.), INF-γ. Endogen, Woburn, Mass.), IL-13 (PharMingen, (San Diego, Calif.), and TGF-β (Promega, Madison, Wis.) were used according to the manufacturer's instructions. Surface and intracellular staining was performed on Aβ-reactive T-cells after stimulation. All antibodies were purchased from BD Biosciences (San Diego, Calif.) and staining was performed according to the manufacturer's instructions.

The subject of data set [2] is Aβ1-42-reactive T-cell lines. Description: Epitope mapping / proliferation of Aβ1-42-reactive T-cell lines. As to conditions: for Distribution of Aβ T-cell epitopes: Number of T-cell lines / Distribution of Aβ T-cell epitopes: percent: lines from 24 subjects, fine mapping with 15 amino acid overlapping peptides. It is filed as cell-based, human. On the procedure: Epitope specificity of these 3 T-cell lines using 5 overlapping peptides within Aβ15-42 was further investigated.
as §1

For data set [3], the system named is Aβ-reactive T-cell lines. Nature of the data set: Cytokine secretion of Aβ-reactive T-cell lines (sandwich ELISA). It counts as cell-based, human. As to conditions: 48 hr after stimulation, T-cell lines 1, 2, 3. As for the experimental part:
as §1
(An ELISA detects its analyte on a solid surface through an enzyme-linked reagent.)

Data set [4] deals with popliteal draining lymph nodes (PLN) T cells. Nature of the data set: Lymph node T-cell proliferation after immunization of mice with Aβ in CFA. As to conditions: for T-cell proliferation across the peptide series Aβ7-21 to Aβ10-24: SJL mice immunized with rodent Aβ1-42; for T-cell proliferation with overlapping peptides: SJL-derived lymphocyte cultures, immunized with human Aβ1-42. It is filed as cell-based, mouse.

The subject of data set [5] is APP/IFN-g Tg mice. As to conditions: mouse, in vivo.
Procedure: To determine whether carrying the IA^s allele is sufficient to induce T-cell activation and migration to the CNS of APP-tg mice, B6SJLF1 APP-tg mice line J20, see Methods) were immunized with Aβ10-24 in CFA followed by intravenous injection of PT at the time of immunization and 48 hr later.
APP/IFN-γ tg mice that were immunized with Aβb 10-24 were analyzed by immunohistochemistry 20 and 30 days after immunization for immune infiltrates associated with Aβ plaques.
Immunization and measurement of immune responses: Mice were immunized by footpad injection if sacrificed on day 12, for longer periods mice were injected in the flanks. Each mouse received 100 ml of antigen (1 mg/ml), emulsified in an equal volume of complete Freund's adjuvant (CFA). Mice were also injected intravenously with 150 ng pertussis toxin at the time of immunization and 48 hours later.
Immunohistochemistry and imaging: Cryosections (6 μm) from brains of APP-Tg+ mice were placed onto glass slides and fixed with ice-cold methanol for 2 min followed by 2% PFA at RT for 4 min. Sections were washed once with distilled water for 5 min and twice with PBS containing 0.05% Tween-20. Sections were then incubated for 1 hour at RT with blocking buffer (PBS containing 3% normal goat serum and 2% bovine serum albumin).

Consider “Ala 21 Gly: Aβ16-30 peptide with alanine 21 changed to glycine (KLVFFGEDVGSNKGA; Amyloid-beta protein 42; UniProt P05067 687-701, looked up, variant A21G)”, for which the “T-cell proliferation, average cpm” value was determined as 12901 cpm in data set [1] (Peptide 0.1 μg/ml), 29634 cpm in data set [1] (Peptide 1 μg/ml) and 36448 cpm in data set [1] (Peptide 10 μg/ml).
As to “Ala 30 Gly: Aβ16-30 peptide with alanine 30 changed to glycine (KLVFFAEDVGSNKGG; Amyloid-beta protein 42; UniProt P05067 687-701, looked up, variant A30G)”, the figures for the “T-cell proliferation, average cpm” value in data set [1] (Peptide 0.1 μg/ml), in data set [1] (Peptide 1 μg/ml) and in data set [1] (Peptide 10 μg/ml) were 2123 cpm, 12027 cpm and 15395 cpm, respectively.
On the same counts, the results for “Asn 27 Ala: Aβ16-30 peptide with asparagine-27 substituted by alanine (KLVFFAEDVGSAKGA; Amyloid-beta protein 42; UniProt P05067 687-701, looked up, variant N27A)” are 23636 cpm, 36588 cpm and 34983 cpm.
“Asp 23 Ala: Aβ16-30 peptide with aspartic acid-23 substituted by alanine (KLVFFAEAVGSNKGA; Amyloid-beta protein 42; UniProt P05067 687-701, looked up, variant D23A)”: the “T-cell proliferation, average cpm” value in data set [1] (Peptide 0.1 μg/ml) was 1145 cpm; in data set [1] (Peptide 1 μg/ml), 1685 cpm; in data set [1] (Peptide 10 μg/ml), 612 cpm. Further, in data set [1] (at all 3 concentrations used), the “effect of substitution on T-cell proliferation” value (from here on “effect of substitution”) is “blocked or significantly decreased”.
As for “Aβ1-28: overlapping N-terminal fragment of Aβ1-42, residues 1-28”, in data set [2], the “Distribution of Aβ T-cell epitopes: Number of T-cell lines” value (“Distribution … of T-cell lines” below) is recorded as 2 and the “Distribution of Aβ T-cell epitopes: percent” value (from here on “Distribution … percent”) worked out at 8%. Moreover, in data set [3], the IFN-γ secretion entry was “not IFN-γ” and the IL-13 secretion result is “high levels”.
For “Aβ7-21: nested Aβ peptide, residues 7-21 (DSGYEVHHQKLVFFA; Amyloid-beta protein 42; UniProt P05067 678-692, looked up, fragment)”, in data set [2], the “Distribution … of T-cell lines” value stood at 1 and the “Distribution … percent” value was determined as 4%. Also, in data set [4] (NOD mice immunized with Aβ1-42), the T-cell proliferation result is given as “slight T-cell proliferation”. Also, in data set [4], the “T-cell proliferation across the peptide series Aβ7-21 to Aβ10-24” value was “gradual increase” and the “T-cell proliferation with overlapping peptides” value was “induced T-cell proliferation”.
As to “Aβ8-22: Aβ peptide, residues 8-22 (SGYEVHHQKLVFFAE; Amyloid-beta protein 42; UniProt P05067 679-693, looked up, fragment)”, the “T-cell proliferation across the peptide series Aβ7-21 to Aβ10-24” value in data set [4] is “gradual increase”.
For “Aβ13-27: nested Aβ peptide, residues 13-27 (HHQKLVFFAEDVGSN; Amyloid-beta protein 42; UniProt P05067 684-698, looked up, fragment)”, in data set [4], the “T-cell proliferation with overlapping peptides” value is on record as “induced T-cell proliferation”.
Take “Aβ19-33: nested Aβ peptide, residues 19-33 (FFAEDVGSNKGAIIG)”: in data set [2] (T-cell line DRB1 1501/1101, 5 overlapping peptides within Aβ15-42), the “location of T-cell epitopes” value is given as “mainly located”.
On to “Aβ28-42: nested Aβ peptide, residues 28-42 (KGAIIGLMVGGVVIA; Amyloid-beta protein 42; UniProt P05067 699-713, looked up, fragment)”, for which, in data set [2], the “Distribution … of T-cell lines” value is 5 and the “Distribution … percent” value is recorded as 20%.
As to “Glu 22 Ala: Aβ16-30 peptide with glutamic acid-22 substituted by alanine (KLVFFAADVGSNKGA; Amyloid-beta protein 42; UniProt P05067 687-701, looked up, variant E22A)”, the entries for the “T-cell proliferation, average cpm” value in data set [1] (Peptide 0.1 μg/ml), in data set [1] (Peptide 1 μg/ml) and in data set [1] (Peptide 10 μg/ml) were 1145 cpm, 840 cpm and 517 cpm, respectively. Besides, the “effect of substitution” value in data set [1] (at all 3 concentrations used) is listed as “blocked or significantly decreased”.
For the substance “Gly 25 Ala: Aβ16-30 peptide with Gly 25 substituted by alanine (KLVFFAEDVASNKGA; Amyloid-beta protein 42; UniProt P05067 687-701, looked up, variant G25A)”, the “T-cell proliferation, average cpm” value in data set [1] (Peptide 0.1 μg/ml) is on record as 2426 cpm; in data set [1] (Peptide 1 μg/ml) it was 13763 cpm; in data set [1] (Peptide 10 μg/ml), 24979 cpm.
For the substance “Gly 29 Ala: Aβ16-30 peptide with glycine-29 substituted by alanine (KLVFFAEDVGSNKAA; Amyloid-beta protein 42; UniProt P05067 687-701, looked up, variant G29A)”, the “T-cell proliferation, average cpm” value in data set [1] (Peptide 0.1 μg/ml) is given as 622 cpm; in data set [1] (Peptide 1 μg/ml), 3014 cpm; in data set [1] (Peptide 10 μg/ml), 14513 cpm. The “effect of substitution” value in data set [1] (only at 0.1 or 1 μg/ml) is “inhibitory effects”.
As for “Leu 17 Ala: Aβ16-30 peptide with Leu 17 substituted by alanine (KAVFFAEDVGSNKGA; Amyloid-beta protein 42; UniProt P05067 687-701, looked up, variant L17A)”, the entries for the “T-cell proliferation, average cpm” value in data set [1] (Peptide 0.1 μg/ml), in data set [1] (Peptide 1 μg/ml) and in data set [1] (Peptide 10 μg/ml) were 2242 cpm, 11805 cpm and 24480 cpm, respectively.
On the same counts, the results for “Lys 16 Ala: Aβ16-30 peptide with lysine-16 substituted by alanine (ALVFFAEDVGSNKGA; Amyloid-beta protein 42; UniProt P05067 687-701, looked up, variant K16A)” are 5357 cpm, 22304 cpm and 36456 cpm.
Take “Lys 28 Ala: Aβ16-30 peptide with Lys 28 substituted by alanine (KLVFFAEDVGSNAGA; Amyloid-beta protein 42; UniProt P05067 687-701, looked up, variant K28A)”: the “T-cell proliferation, average cpm” value in data set [1] (Peptide 0.1 μg/ml) is recorded as 5050 cpm; in data set [1] (Peptide 1 μg/ml), 15475 cpm; in data set [1] (Peptide 10 μg/ml), 29156 cpm.
In the case of “Phe 19 Ala: Aβ16-30 peptide with phenylalanine-19 substituted by alanine (KLVAFAEDVGSNKGA; Amyloid-beta protein 42; UniProt P05067 687-701, looked up, variant F19A)”, the “T-cell proliferation, average cpm” value in data set [1] (Peptide 0.1 μg/ml) worked out at 986 cpm; in data set [1] (Peptide 1 μg/ml), 4354 cpm; in data set [1] (Peptide 10 μg/ml), 17943 cpm. Moreover, the “effect of substitution” value in data set [1] (only at 0.1 or 1 μg/ml) is listed as “inhibitory effects”.
As to “Phe 20 Ala: Aβ16-30 peptide with phenylalanine-20 substituted by alanine (KLVFAAEDVGSNKGA; Amyloid-beta protein 42; UniProt P05067 687-701, looked up, variant F20A)”, the figures for the “T-cell proliferation, average cpm” value in data set [1] (Peptide 0.1 μg/ml), in data set [1] (Peptide 1 μg/ml) and in data set [1] (Peptide 10 μg/ml) were 1188 cpm, 2239 cpm and 4216 cpm, respectively. The “effect of substitution” value in data set [1] (at all 3 concentrations used) is on record as “blocked or significantly decreased”.
Turning to “Ser 26 Ala: Aβ16-30 peptide with serine-26 substituted by alanine (KLVFFAEDVGANKGA; Amyloid-beta protein 42; UniProt P05067 687-701, looked up, variant S26A)”, the figures for the “T-cell proliferation, average cpm” value in data set [1] (Peptide 0.1 μg/ml), in data set [1] (Peptide 1 μg/ml) and in data set [1] (Peptide 10 μg/ml) were 18808 cpm, 36287 cpm and 38335 cpm, respectively.
As for “Val 18 Ala: Aβ16-30 peptide with Val 18 substituted by alanine (KLAFFAEDVGSNKGA; Amyloid-beta protein 42; UniProt P05067 687-701, looked up, variant V18A)”, the “T-cell proliferation, average cpm” value in data set [1] (Peptide 0.1 μg/ml) came to 7216 cpm; in data set [1] (Peptide 1 μg/ml), 17427 cpm; in data set [1] (Peptide 10 μg/ml), 26814 cpm.
For “Val 24 Ala: Aβ16-30 peptide with valine-24 substituted by alanine (KLVFFAEDAGSNKGA; Amyloid-beta protein 42; UniProt P05067 687-701, looked up, variant V24A)”, the “T-cell proliferation, average cpm” value in data set [1] (Peptide 0.1 μg/ml) is recorded as 944 cpm; in data set [1] (Peptide 1 μg/ml) it was 6160 cpm; in data set [1] (Peptide 10 μg/ml), 19869 cpm. For the same substance, the “effect of substitution” value in data set [1] (only at 0.1 or 1 μg/ml) is reported as “inhibitory effects”.
On to YEVHHQKLVFFAEDV [Aβ10-24], for which, in data set [5], the “Immune infiltrates in the spinal cord” value is given as “not observed” and the meningoencephalitis result is on record as “strong meningoencephalitis”.
